The results in this text go back to patent US20080226565A1, “Anticariogenic Proteins & Peptides & Saccharides” (priority 2004, published 2008).

What all share (parameters): species or system human
Experiment [1] is described as follows: Determination of the PF-value: Knoop micro hardness of tooth samples coated with product, then saliva and acetic acid (in-vitro). The source says: The capacity to protect teeth against caries can be measured with a technique well known in the art (U.S. Pat. No. 5,279,814). Demineralization with acid, decreases the hardness of the tooth surface. The hardness can be quantified indirectly by measuring the depth of penetration of a needle in the surface (measurement of micro hardness). With this procedure, so called “Knoop” method, the needle is penetrating the surface under the pressure of constant weight and leaves a mark on the surface that allows the calculation of the depth of penetration. The more the tooth is suffering from demineralization, the softer its surface will get and the larger the depth of penetration will be (Knoop F., Peters C. G., Emerson W. B., A Sensitive Pyramidal Diamond Tool for Identation Measurments, J. Res. Natn. Bur. Stand. 23, 39-61 (1939).
The procedure includes the determination of the hardness of a human tooth sample with the Knoop method. Subsequently, the tooth is treated with an experimental protecting product outside the oral cavity.
It is cleaned softly with a paper towel until the coating is invisible.
Subsequently the tooth sample is submerged in a batch of human saliva in order to simulate the conditions in the oral cavity. After removal from the saliva batch (after 30 min.) it is treated with acid over a constant time period of 30 min. at 37° C. The acid is washed away, the tooth is dried on air and the hardness is measured again. The change in hardness (delta P in μm) is obtained by comparing with the hardness of the tooth before treatment. This experiment is repeated on other tooth samples. The effect of acid on unprotected teeth is obtained by carrying out the same procedure but without the use of an experimental protecting product (delta Pa). The protecting capacity (“PF” protection factor) of an experimental protecting compound can be defined as: […]
The ability of a product to protect teeth (PF-value) is determined with the Knoop method. A tooth sample, size 3×3×3 mm is cut from a human tooth and embedded into polymerizing resin in such a way that the surface of the tooth sample appears on the surface of the (resin) cube after the resin has become solid. The surface of the tooth is mechanically polished with rotating silicon carbide abrasive paper (Struers P1200-P2400-P4000) and the micro hardness of the enamel is determined with a Knoop diamant needle (Leitz-Wetzlar;
microdurometer “Durimet”; weight 50 gr; penetration-time: 30 seconds (Collys et al., J. Dent. Res. 1990; 69: 458-462)).
The penetration leaves a mark on the tooth surface, which is related to the depth of penetration (μm) and which can be analyzed under the microscope. […] The determination of the depth of penetration is repeated six times on each of the tooth samples and the average value is calculated. In order to determine the effect of acid on the hardness of the surface, use is made of an acetic acid buffer from Merck (pH 5; 0.1N). One drop of acid is positioned on the enamel for a period of 30 minutes at 37° C. The sample is cleaned with demineralized water and dried. The hardness is measured again according to the method of Knoop. This procedure is repeated 4 times, which means that the sample has been subjected to acid for a total period of two hours.
A graph (Y: penetration depth μm; X: 5 treatment stages) can be made on the basis of 5 average values (each of them based on six measurement), one obtained before treatment with acid, and the other 4 obtained after each of the 4 treatment-stages with acid. A logaritmic regressionline is calculated.

Experiment [2] is described as follows: In-vivo: radiated tooth samples treated with protector, 5 days in the oral cavity, Knoop hardness. The note with it: for delta: change of hardness (increase of depth of penetration): radiation + 5 days in oral cavity, 0.1% fluoride or 4% bisphosphonate e-polylysine with CaCl2 and KH2PO4. The source says:
A device is constructed that can contain up to 6 experimental tooth samples for positioning in the oral cavity. […] The construction of the experimental tooths samples is outlined in chapter C.2.“Results; in-vivo experiments”. In the oral cavity, the tooth samples are positioned in the device in such a way that the enamel surfaces are subjected to physical contact with the tongue and are submerged in saliva. […] In experiments where the device is residing a long time period in the oral cavity (5 days and more), a metal network is positioned just above the surface of the experimental teeth, in order to provide support for the bacteria and stimulate it's growth path. It is also possible to measure the residual protection competence by removing the tooth samples from the oral cavity at the end of the selected residence time and treating them with acid under laboratory conditions.
The device was positioned after the lower jaw in the oral cavity for a period of five days. After removal from the oral cavity, the samples where cleaned and the hardness was measured.
(§1) Tooth samples have been cut in horizontal slices (thickness: 0.3 to 1 mm) with a Leitz 1600 tooth cutter with horizontal cutting blade; the slices are cut manually (with a bore) into small tooth samples that contain a small part of the original tooth surface. The tooth sample is positioned in a small plastic tube, that has been cut from a long plastic tube with 6 mm external diameter. The length of the tube is 3 to 6 mm. The inner part of the tube is filled with a polymer that hardens under light (Photoclearfil Bright; Kuraray). The tooth sample is positioned in the soft polymer inside the tube, in such a way that the original tooth surface is just surfacing above the tube. Finally the polymer is hardened with a light source. The tooth surface is polished with Struers silicon carbid paper (800-4000) and the hardness is measured 5 times on each of the samples under the Letiz Wetzlar microscope (weight on needle: 50 p). Tooth samples with a maximum average depth of penetration of 43 μm are retained for use in the oral cavity.
Tooth samples have been subjected to a radiation dose that is equal to the amount that is given to patients with oral cancer (20 Gray) and have been sterilized. […] A drop of the solution was positioned on the tooth surface and allowed to reside for a period of 30 minutes at 37 C.; the procedure was repeated after removal of the drop with pressured air. Finally the drop was removed, the tooth was dried on air and fixed to the device. In total six tooth samples have been fixed to the device and positioned in the oral cavity after the lower jaw. It remained in the oral cavity for a period of 5 days (day and night). After completion of the required residence time, the device was removed from the oral cavity and the experimental teeth where separated from the device and washed. The hardness was measured according to the Knoop method, six times on each of the tooth samples.
B: the stage at which the hardness of the tooth surface has been measured with the Knoop method. (before the treatment; after radiation and before addition of protector formulation to the surface; after addition of protector to the surface of the tooth and after residing five days in the oral cavity).
B: the stage at which the hardness of the tooth surface has been measured with the Knoop method.

Experiment [3] can be described thus: In-vivo: residual protection, radiated samples after 5 days in oral cavity treated with acetic acid. The source says: N: number of tooth samples A: hardness(μm) after radiation and 5 days residence in the oral cavity B: hardness after radiation and 5 days in the oral cavity and treatment with acetic acid
Experiment [4] is described as follows: In-vivo: tooth samples treated with peptide, 12 hours in the oral cavity, then acetic acid, Knoop hardness. On the procedure: In another experiment, 126 sterilized tooth samples where treated with a variety of peptides, fixed to the device and positioned after the lower jaw in the oral cavity of 5 volunteers. The device remained in the oral cavity for a period of 12 hours after which the teeth where removed, cleaned and subjected to a drop of acetic acid (0.1N, 30 min., 37° C). Subsequently the acid was removed, the teeth where cleaned and the hardness was measured (Knoop method). The depth of penetration increased 8.82 μm, 5.40 μm, 5.32 μm and 3.77 μm respectively for teeth treated as blanco with 4.2% casein phosphopeptide e-polylysine copolymer, 7.5% phosvitin and with 4.2% bisphosphonylated e-polylysine. The p-values are respectively 0.000, 0.000 and 0.004 for casein phosphopeptide e-polylysine copolymer, bisphosphonylated e-polylysine and phosvitin.
as §1
The tooth-samples are fixed to a device that has been described in the chapter “Description of the invention ( chapter: In-vivo experiments)” and the device is positioned in the oral cavity after the lower jaw.
A drop from a solution containing either, e-polylysine, CPP, bisphoshphonylated e-polylysine, casein phosphopeptide epsilon-polylysine copolymer or partially hydrolysed phosvitin has been positioned at the surface of tooth samples for a period of 30 minutes at 37 C.; the drop was removed and the procedure was repeated once more. All solutions contained also 3.1% CaCl2.2H2O and 1.7% KH2PO4 (except for the one containing e-polylysine).
The tooth surface was cleaned with a soft paper towel until it was visibly clean. Four such tooth samples where fixed to the device and located in the oral cavity behind the lower jaw. They resided in the oral cavity for a period of 12 hours (only to be removed during eating). Subsequently, they where removed, cleaned and the tooth surface was treated with a drop of acetic acid (0.1N, 30 min., 37° C.); the acid was removed, the tooth was washed with deionized water and the hardness was evaluated.
A: type of peptide ingredient in the solution (% on a w/w basis versus water). (*): the teeth where submerged (30 min.) in a saliva batch and dried afterwards on air, before they where treated with a solution that contained bisphosphonylated e-polylysine. B: Average initial hardness of the tooth surface; μm (st. dev.) C: Average hardness after treatment, after residing in the oral cavity and treatment with acid D: The average change in hardness (C−B) E: p-value (against blanco) of the Mann-Whitney statistical test F: the number of tooth samples that where treated with a specific formulation; hardness on each of the tooth samples was measured five times and an average value was calculated; most often 4 tooth samples per person; 5 volunteers participated to the experiment; the 132 tooth samples where randomized into groups (of 4 teeth) with the same average hardness value.

Setting [5] is: gel: 4.2% hydroxyethylcellulose, 0.3% NaF, pH 8.8.
Where [6] appears, read: 4.2% w/w solution, 12 hours oral cavity, acetic acid 0.1N 30 min.

On to `[F-].[Na+]` [Product IV, sodium fluoride, reference compound], for which the PF factor in experiment [1] (0.1% product/water w/w) is 61. Further, the PF in experiment [1] (gel with 0.3% sodium fluoride only) is recorded as 68%; in experiment [1] (setting [5]), 68.1. Besides, in experiment [1] (setting [5]), the “delta P” value is 18.8 μm. The “Mean hardness (depth of penetration)” value was found to be 42.77 μm in experiment [2] (after protector and 5 days oral cavity, 0.1% NaF or 4% bisphosphonate e-polylysine with CaCl2 and KH2PO4); 40.97 μm in experiment [2] (after radiation, before addition of protector (baseline of group)); 41.10 μm in experiment [2] (start, before treatment (baseline of group)). Moreover, in experiment [2] (after radiation, before addition of the formulation), the “delta: change of hardness” value was −0.13 μm. In addition, the results for the “delta: change of hardness (increase of depth of penetration)” value in experiment [2] and in experiment [2] (listed as NaF) were 1.67 μm and 1.8 μm, respectively. In experiment [3] (acetic acid 0.1N, 30 min, 37° C. after 5 days in oral cavity), the “C: B−A (increase of depth of penetration by acid)” value is recorded as 6.5 μm. Besides, the “B: hardness after radiation and 5 days in the oral cavity and treatment with acetic acid” value in experiment [3] (acetic acid 0.1N, pH 5, 30 min, 37° C.) was 48.4 μm. For the same compound, the “A: hardness after radiation and 5 days residence in the oral cavity” value in experiment [3] (samples later treated with acid) came to 41.9 μm.
Turning to `NC(CO)(CO)CO` [Product V, Tris(hydroxymethyl)aminoethane, reference compound], the PF factor in experiment [1] (3.4% product/water w/w) is recorded as 35.
Take “Casein phosphopeptide (CPP) [Product 1, reference compound]”: in experiment [4] (setting [6]), the “C: Average hardness after treatment, after residing in the oral cavity and treatment with acid” value was 47.60 (2.53) μm; the “D: average change in hardness (C−B)” value turned out to be 6.78 μm. For the same compound, the “B: Average initial hardness of the tooth surface (st. dev.)” value in experiment [4] (group for 4.2% solution, before treatment) is 40.82 (0.73) μm.
Take “Natural phosvitin (Phos) [Product 3, reference compound]”: the “D: average change in hardness (C−B)” value in experiment [4] (7.5% w/w solution) is reported as 5.32 μm.
In the case of “Partially hydrolyzed phosvitin, (Phos-h) [Product 5]”, in experiment [1] (versus natural phosvitin), the “more protection competence in comparison to natural phosvitin” value came to 25%.
The compound Polymerized (CPP) = (CPP)n [Product 2] registered a PF factor in experiment [1] (7.2% product/water w/w) of 58.
